Measurements from ChEMBL document CHEMBL1148160, “Planaxool: a novel cytotoxic cembranoid form the mollusk Planaxis sulcatus” (1993).

Test system: L1210
Test: Cytotoxicity against mouse L1210 cells
Format: functional

C/C1=C\CC[C@]2(C)O[C@H]([C@@H]3OC(=O)[C@]4(OO)CCO[C@@H]2C[C@H]34)[C@H](C)CCC1 [PLANAXOOL]
IC100: 2.4 µg/mL
